Usually LD50 stands for the dose expected to kill half of the subjects tested. Read a low LD50 as greater toxicity.

Data on 20 compounds can be found in patent publication US4146721A, “Pyrazol-4-acetic acid compounds” (priority 1970, dated 1979).

Where two headings read alike, the source gives them in different places.

One data set has as its system rat. Kind of data set: Lowering of the normal temperature of the rat. The data set is classed as in vivo. To be noted: for ED (15 degC temperature lowering): ip, read-out: dose i.p. that lowered the normal temperature of the rat by 15.° C. The procedure: In addition thereto, the new pyrazole compounds of the invention effect a lowering of the temperature in mammalians: 60 mg/kg of compound A and 25 mg/kg of compound L, administered i.p. to the rat lowered the normal temperature of the rat by 15.° C.

The test system of data set [1] is ultraviolet erythema of the skin on the back of the guinea pig. Kind of data set: Ultraviolet erythema of the skin on the back (antiphlogistic effect). The data set is classed as in vivo. To be noted: for ED50: Cavia porcellus, read-out: Retardation of the UV-Erythema by 50% by mg/kg oral; for Retardation of the UV-Erythema, Relative Effect: Phenylbutazon = 1.0.
The nature of another data set: in vivo. The conditions noted are these: mouse, ip.
Data set [2] has as its system Carrageenin edema of the rear paw of the rat. The experiment in a line: Carrageenin edema of the rear paw (antiphlogistic effect). Format: in vivo. The conditions noted are these: for Retardation of the Carrageenin Edema, Relative Effect: Phenylbutazon = 1.0; for ED40: read-out: Retardation of the Carrageenin Edema by 40% by mg/kg oral. In general terms: Carrageenan injected into the paw causes an acute inflammation.

For data set [3], the system named is mouse. To be noted: Table II; I.P.
Protocol: (§2) ^3) Dose, at which 50% of the animals died within 72 hours after
administration of the substance
Data set [4] can be described thus: Analgesic effect: delay in the defense reaction of the mouse upon thermal stimulation of the root of the tail by a heat beam. The data set is classed as in vivo. To be noted: mouse, in vivo; LD5 I.P. / ED40 oral; read-out: Therapeutic Index LD5/ED40. Here is the method: (§1) The analgesic effect is measured as the mean delay in the defense reaction of the mouse by 20% (ED20) and 40% (ED40) during 2 hours upon thermal stimulation of the root of the tail by a heat beam relative to aminophenazone.

In data set [5] the test system is mouse. Described as above. The data set is classed as in vivo. The conditions noted are these: oral; for ED20 / ED40: Mus musculus; for ED20: mean delay in defense reaction by 20% during 2 hours; for ED40: mean delay in defense reaction by 40% during 2 hours; for ED20 Relative / ED40 Relative: relative to aminophenazone. The procedure: as §1
For data set [6] the following is noted: cited from earlier work.
Setting [7] is: rat, lowering by 15.° C. (so in the source).
The mark [8] stands for this setting: guinea pig, oral, dose for 50% retardation.
[9] abbreviates: Toxicity LD50 after a single dose in the mouse, Table I, i.p., 50% of the animals died within 72 hours.
The mark [10] stands for this setting: rat, oral, dose for 40% retardation.

Protocol for in vivo: as §2
administration of the substance

In the case of `O=C(O)Cc1c(-c2ccccc2)nn(-c2ccccc2)c1-c1ccccc1` [A, 1,3,5-triphenyl-pyrazol-4-acetic acid], in the data set with rat (60 mg/kg i.p.), the “lowering of the normal temperature of the rat” value stood at 15. ° C. In addition, the ED (15 degC temperature lowering) in the data set on rat (Rattus norvegicus) was found to be 60 mg/kg. Also, in data set [1] (po), the ED50 was 3 mg/kg. The “Retardation of the UV-Erythema, Relative Effect” value in data set [1] (guinea pig, oral) worked out at 5.3. In “in vivo”, this compound gave an LD50 at 72 h of 312 mg/kg. Further, in data set [2] (rat, oral), the “Retardation of the Carrageenin Edema, Relative Effect” value came to 6.0. In data set [2] (Rattus norvegicus, po), the ED40 amounted to 5 mg/kg.

As to `Cc1c(N(C)C)c(=O)n(-c2ccccc2)n1C` [Aminophenazone, reference compound], in the data set on rat (setting [7]), the ED (15 degC temperature lowering) turned out to be 70 mg/kg. In the data set with mouse [3], this compound gave an LD5 of 270 mg/kg. For the same compound, the selectivity ratio in data set [4] was determined as 1.9. In the data set with mouse [5], the ED20 was 50 mg/kg and the ED40 amounted to 140 mg/kg. This compound also displayed an LD50 at 72 h in the data set “in vivo” of 330 mg/kg.

Take `O=C(O)Cc1c(-c2ccco2)nn(-c2ccccc2)c1-c1ccco1` [B, 1-phenyl-3,5-di-(2-furyl)-pyrazol-4-acetic acid]: in the data set with mouse [3], the LD5 was 190 mg/kg. Also, the ED50 in data set [1] (setting [8]) was 1.5 mg/kg. For the same compound, the “Retardation of the UV-Erythema, Relative Effect” value in data set [1] (guinea pig, oral) is recorded as 10.7. Further, the selectivity ratio in data set [4] is 3.8. In the data set with mouse [5], the ED20 was determined as 10 mg/kg, the ED40 came out at 50 mg/kg, the “ED20 Relative” value was determined as 5.0 and the “ED40 Relative” value is 2.8. The same compound displayed an LD50 at 72 h in the data set “in vivo” (LD50, Table II, I.P.) of 373 mg/kg. Besides, in “in vivo” (setting [9]), the LD50 at 72 h turned out to be 370 mg/kg. Further, the “Retardation of the Carrageenin Edema, Relative Effect” value in data set [2] (rat, oral) is 3.0. The ED40 in data set [2] (setting [10]) turned out to be 10 mg/kg.

Take `O=C(O)Cc1c(-c2ccccc2)nn(-c2cccnc2)c1-c1ccccc1` [C, 3,5-diphenyl-1-(3-pyridyl)-pyrazol-4-acetic acid]: in data set [1] (setting [8]), the ED50 is 2.5 mg/kg. Besides, the “Retardation of the UV-Erythema, Relative Effect” value in data set [1] (guinea pig, oral) amounted to 6.4. The compound further showed an LD50 at 72 h in “in vivo” (setting [9]) of 1150 mg/kg. In addition, in data set [2] (rat, oral), the “Retardation of the Carrageenin Edema, Relative Effect” value came to 1.5. The ED40 in data set [2] (setting [10]) is 20 mg/kg.

Consider `O=C(O)Cc1cn(-c2ccccc2)nc1-c1ccc(Cl)cc1` [D, 1-phenyl-3-(p-chlorophenyl)-pyrazol-4-acetic acid], for which, in data set [1] (setting [8]), the ED50 worked out at 3 mg/kg. In data set [2] (setting [10]), the ED40 was 2.5 mg/kg.

In “in vivo” (setting [9]), `CCCCn1nc(C)c(CC(=O)O)c1C` [E, 3,5-dimethyl-1-n-butyl-pyrazol-4-acetic acid] displayed an LD50 at 72 h of 1400 mg/kg. In addition, the “Retardation of the Carrageenin Edema, Relative Effect” value in data set [2] (rat, oral) was determined as 0.6. Besides, the ED40 in data set [2] (setting [10]) is 50 mg/kg.

Turning to `COc1ccc(-n2nc(C)c(CC(=O)O)c2C)cc1` [F, 3,5-dimethyl-1-(p-methoxyphenyl)-pyrazol-4-acetic acid], the LD50 at 72 h in the data set “in vivo” (setting [9]) amounted to 1000 mg/kg. Besides, in data set [2] (rat, oral), the “Retardation of the Carrageenin Edema, Relative Effect” value came to 0.6. The ED40 in data set [2] (setting [10]) worked out at 50 mg/kg.

Regarding `Cc1nn(-c2ccccc2)c(-c2ccccc2)c1CC(=O)O` [G, 3-methyl-1,5-diphenyl-pyrazol-4-acetic acid], the ED50 in data set [1] (setting [8]) was found to be 20 mg/kg. In addition, the “Retardation of the UV-Erythema, Relative Effect” value in data set [1] (guinea pig, oral) is on record as 0.8. The compound further displayed an LD50 at 72 h in “in vivo” (setting [9]) of 500 mg/kg.

Take `CC(C(=O)O)c1c(-c2ccccc2)nn(-c2ccccc2)c1-c1ccccc1` (stereo not drawn) [H, α-methyl-1,3,5-triphenyl-pyrazol-4-acetic acid]: the ED50 in data set [1] (setting [8]) was determined as 5 mg/kg. The “Retardation of the UV-Erythema, Relative Effect” value in data set [1] (guinea pig, oral) stood at 3.2. In addition, the LD50 at 72 h in the data set “in vivo” (setting [9]) was 199 mg/kg. For the same compound, the “Retardation of the Carrageenin Edema, Relative Effect” value in data set [2] (rat, oral) came out at 1.0. Also, the ED40 in data set [2] (setting [10]) was determined as 30 mg/kg.

In the data set with mouse [3], `O=C(O)Cc1cnn(-c2ccccc2)c1-c1ccc(Cl)cc1` [I, 1-phenyl-5-(p-chlorophenyl)-pyrazol-4-acetic acid] showed an LD5 of 180 mg/kg. The selectivity ratio in data set [4] stood at 2.6. In the data set on mouse [5], the ED20 is 50 mg/kg, the ED40 was determined as 70 mg/kg, the “ED20 Relative” value came to 1.0 and the “ED40 Relative” value is 2.0. In “in vivo” (LD50, Table II, I.P.), this compound yielded an LD50 at 72 h of 279 mg/kg.

Take `COc1ccc2c(c1)c(CC(=O)O)c(C)n2C(=O)c1ccc(Cl)cc1` [Indomethacin, 2-methyl-5-methoxy-1-(p-chlorobenzoyl)-indol-3-acetic acid, reference compound]: the side effects result in data set [6] (Chem. Eng. News 46 (1968)) is on record as “many undesirable side effects”. Moreover, the “antiphlogistic, analgesic and antipyretic effectiveness compared with 4-n-butyl-1,2-diphenyl-3,5-dioxopyracoline” value in data set [6] (J. Am. Chem. So. 85, 488 (1963)) is given as “surpassing in this respect the effectiveness”. For the same compound, the ED50 in data set [1] (po) is 20 mg/kg. Besides, in data set [1] (guinea pig, oral), the “Retardation of the UV-Erythema, Relative Effect” value was 0.8. In the data set “in vivo”, this compound yielded an LD50 at 72 h of 45 mg/kg. Also, in data set [2] (rat, oral), the “Retardation of the Carrageenin Edema, Relative Effect” value was 7.5. Further, in data set [2] (Rattus norvegicus, po), the ED40 came out at 4 mg/kg.

For the compound `CCCCn1nc(-c2ccccc2)c(CC(=O)O)c1-c1ccccc1` [K, 1-n-butyl-3,5-diphenyl-pyrazol-4-acetic acid], the LD5 in the data set with mouse [3] worked out at 360 mg/kg. Also, the selectivity ratio in data set [4] was determined as 4.5. In addition, in the data set on mouse [5], the ED20 came to 20 mg/kg, the ED40 worked out at 80 mg/kg, the “ED20 Relative” value worked out at 2.5 and the “ED40 Relative” value worked out at 1.8. Moreover, the LD50 at 72 h in “in vivo” (LD50, Table II, I.P.) came out at 430 mg/kg.

For `O=C(O)Cc1c(-c2ccccc2)nn(-c2ccc(Cl)cc2)c1-c1ccccc1` [L, 3,5-diphenyl-1-(p-chlorophenyl)-pyrazol-4-acetic acid], the lowering of the normal temperature of the rat with rat (25 mg/kg i.p.) stood at 1.5 ° C. For the same compound, the ED (15 degC temperature lowering) in the data set on rat (setting [7]) worked out at 25 mg/kg. Besides, in the data set with mouse [5], the ED20 amounted to 15 mg/kg, the ED40 came to 55 mg/kg, the “ED20 Relative” value came to 3.3 and the “ED40 Relative” value turned out to be 2.5. In the data set “in vivo” (LD50, Table II, I.P.), this compound had an LD50 at 72 h of around 80 mg/kg.

In the data set with mouse [3], `O=C(O)Cc1c(-c2ccc(Cl)cc2)nn(-c2ccccc2)c1-c1ccc(Cl)cc1` [M, 1-phenyl-3,5-bis-(p-chlorophenyl)-pyrazol-4-acetic acid] gave an LD5 of 38 mg/kg. Besides, the selectivity ratio in data set [4] was 1.9. In addition, in the data set with mouse [5], the ED20 is 7 mg/kg, the ED40 was determined as 20 mg/kg, the “ED20 Relative” value worked out at 7.1 and the “ED40 Relative” value worked out at 7.0. The compound also came in with a 50% lethal dose (LD50) at 72 h in the data set “in vivo” (LD50, Table II, I.P.) of 51 mg/kg.

Compound `COc1cccc(-c2nn(-c3ccccc3)c(-c3cccc(OC)c3)c2CC(=O)O)c1` [N, 1-phenyl-3,5-bis-(m-methoxyphenyl)-pyrazol-4-acetic acid] showed an LD5 in the data set on mouse [3] of 200 mg/kg. Moreover, the selectivity ratio in data set [4] was determined as 3.6. Also, in the data set with mouse [5], the ED20 turned out to be 30 mg/kg, the ED40 was 55 mg/kg, the “ED20 Relative” value worked out at 1.7 and the “ED40 Relative” value came out at 2.5. The compound also gave an LD50 at 72 h in the data set “in vivo” (LD50, Table II, I.P.) of 312 mg/kg.

With `CCOC(=O)Cc1c(-c2ccccc2)nn(-c2cccc(C(F)(F)F)c2)c1-c1ccccc1` [O, 3,5-diphenyl-1-(α,α,α-trifluoro-m-tolyl)-pyrazol-4-acetic acid-ethyl ester], in the data set with mouse [5], the ED20 is 50 mg/kg, the ED40 is 70 mg/kg, the “ED20 Relative” value is 1.0 and the “ED40 Relative” value is 2.0.

Turning to `Cc1nn(-c2ccccc2)c(C)c1CC(N)=O` [P, 3,5-dimethyl-1-phenyl-pyrazol-4-acetamide], the LD5 with mouse [3] was 500 mg/kg. Also, the selectivity ratio in data set [4] was 3.3. Besides, in the data set with mouse [5], the ED20 worked out at 50 mg/kg, the ED40 amounted to 150 mg/kg, the “ED20 Relative” value came out at 1.0 and the “ED40 Relative” value was found to be 0.9. In addition, in “in vivo” (LD50, Table II, I.P.), the LD50 at 72 h was found to be 500 mg/kg.

In the case of `CCCCC1C(=O)N(c2ccccc2)N(c2ccccc2)C1=O` [Phenylbutazon, reference compound], the ED50 in data set [1] (setting [8]) is 16 mg/kg. In addition, the ED20 with mouse [5] worked out at 150 mg/kg. Further, in data set [2] (setting [10]), the ED40 was found to be 30 mg/kg.

Turning to `Cc1nn(-c2ccccc2)c(C)c1CC#N` [Q, 3,5-dimethyl-1-phenyl-pyrazol-4-acetonitrile], in the data set with mouse [5], the ED20 was determined as 20 mg/kg, the ED40 was 40 mg/kg, the “ED20 Relative” value is reported as 2.5 and the “ED40 Relative” value is reported as 3.5.

`COc1ccc(-c2nn(-c3ccccc3)cc2CC#N)cc1` [R, 1-phenyl-3-(p-methoxyphenyl)-pyrazol-4-acetonitrile]: in the data set on mouse [5], the ED20 was 50 mg/kg, the ED40 amounted to 80 mg/kg, the “ED20 Relative” value worked out at 1.0 and the “ED40 Relative” value was 1.8.
